From patent US20040171566A1, “Antisense modulation of p38 mitogen activated protein kinase expression” (priority 1999, published 2004)
e = 2'-O-(2-methoxyethyl) (MOE); d = 2'-deoxy (DNA)

Columns and labels:
Format in all cases: cell-based
[1] = system: rat p38α mRNA; assay: Rat p38α mRNA levels in NR-8383 cells, quantitative real-time PCR; conditions: 300 nM oligonucleotide with FuGENE 6, 24 hours, mRNA by quantitative real-time PCR, average of two experiments
[2] = system: mouse p38α mRNA; assay: Mouse p38α mRNA levels in bEND.3 cells, quantitative real-time PCR; set-up: % Inhib. mouse p38α: concentration or dose not given beside the values; conditions: bEND.3 cells, mRNA by quantitative real-time PCR, average of two experiments
In short: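 Mouse bEND.3 cells, antisense oligonucleotide-treated; p38α mRNA measured by one-step real-time RT-PCR (RT 30 min at 48 °C, then 40 cycles) with a FAM/TAMRA probe. Levels normalized to GAPDH or RiboGreen total RNA, and percent inhibition derived from standard curves of untreated-control mRNA.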

[3] = system: human p38β mRNA; assay: Inhibition of human p38β mRNA expression in HUVEC cells, Northern blot
Procedure: The human Jurkat T-cell line (American Type Culture Collection, Manassas, Va.) was maintained in RPMI 1640 growth media supplemented with 10% fetal bovine serum (FBS; Hyclone, Logan, Utah). HUVEC cells (Clonetics, San Diego, Calif.) were cultivated in endothelial basal media supplemented with 10% FBS (Hyclone, Logan, Utah).
HUVEC cells were allowed to reach 75% confluency prior to use. The cells were washed twice with warm (37° C.) OPTI-MEM™ (Life Technologies). The cells were incubated in the presence of the appropriate culture medium, without the growth factors added, and the oligonucleotide formulated in LIPOFECTIN7 (Life Technologies), a 1:1 (w/w) liposome formulation of the cationic lipid N-[1-(2,3-dioleyloxy)propyl]-n,n,n-trimethylammonium chloride (DOTMA), and dioleoyl phosphotidylethanolamine (DOPE) in membrane filtered water. HUVEC cells were treated with 100 nM oligonucleotide in 10 μg/ml LIPOFECTIN7. Treatment was for four hours.
Total mRNA was isolated using the RNEASY7 Mini Kit (Qiagen, Valencia, Calif.; similar kits from other manufacturers may also be used), separated on a 1% agarose gel, transferred to HYBOND™-N+ membrane (Amersham Pharmacia Biotech, Piscataway, N.J.), a positively charged nylon membrane, and probed. p38 MAPK probes were made using the Prime-A-Gene7 kit (Promega Corporation, Madison, Wis.), a random primer labeling kit, using mouse p38α or p38β cDNA as a template. A glyceraldehyde 3-phosphate dehydrogenase (G3PDH) probe was purchased from Clontech (Palo Alto, Calif.), Catalog Number 9805-1. The fragments were purified from low-melting temperature agarose, as described in Maniatis, T., et al., Molecular Cloning: A Laboratory Manual, 1989. The G3PDH probe was labeled with REDIVUE™ ^32P-dCTP (Amersham Pharmacia Biotech, Piscataway, N.J.) and Strip-EZ labelling kit (Ambion, Austin, Tex.). mRNA was quantitated by a PhosphoImager (Molecular Dynamics, Sunnyvale, Calif.).
Every oligonucleotide tested gave at least 50% inhibition.
Oligonucleotides 17893 (SEQ ID NO. 27), 17899 (SEQ ID NO:33), 17904 (SEQ ID NO. 38), and 17907 (SEQ ID NO. 41) were chosen for dose response studies. HUVEC cells were cultured and treated as described in Example 2 except that the oligonucleotide concentration was varied as shown in Table 6. The Lipofectin7/Oligo ratio was maintained at 3 μg Lipofectin7/100 nM oligo, per ml. mRNA was measured by Northern blot as described in Example 2.

[4] = 100 nM oligonucleotide in 10 μg/ml LIPOFECTIN, four hours, Northern blot

## 320164 (antisense CTTGGCATCCTGTTAATGAG; sugars from the 5' end e5 d10 e5, all phosphorothioate, methylation of C not given here) [compound 320164]
[1]
  % Inhib. rat p38α: 73%
[2]
  % Inhib. mouse p38α: 80%

## 320165 (antisense TGCCTCATGGCTTGGCATCC; sugars from the 5' end e5 d10 e5, all phosphorothioate, methylation of C not given here) [compound 320165]
[1]
  % Inhib. rat p38α: 53%
[2]
  % Inhib. mouse p38α: 81%

## 320166 (antisense ACTGAATGTAGTTTCTTGCC; sugars from the 5' end e5 d10 e5, all phosphorothioate, methylation of C not given here) [compound 320166]
[1]
  % Inhib. rat p38α: 35%
[2]
  % Inhib. mouse p38α: 53%

## 320167 (antisense CTTGCCTGTAAAAACACAGA; sugars from the 5' end e5 d10 e5, all phosphorothioate, methylation of C not given here) [compound 320167]
[1]
  % Inhib. rat p38α: 11%
[2]
  % Inhib. mouse p38α: 7%

## 320168 (antisense TCACCTCATGGCTTGGCATC; sugars from the 5' end e5 d10 e5, all phosphorothioate, methylation of C not given here) [compound 320168]
[1]
  % Inhib. rat p38α: 56%
[2]
  % Inhib. mouse p38α: 83%

## 320169 (antisense TTTGTTCTCACCTCATGGCT; sugars from the 5' end e5 d10 e5, all phosphorothioate, methylation of C not given here) [compound 320169]
[1]
  % Inhib. rat p38α: 64%
[2]
  % Inhib. mouse p38α: 92%

## 320170 (antisense TGCTGGCTATACACAGACAC; sugars from the 5' end e5 d10 e5, all phosphorothioate, methylation of C not given here) [compound 320170]
[1]
  % Inhib. rat p38α: 55%
[2]
  % Inhib. mouse p38α: 83%

## 320171 (antisense TGGAAAACTGTTTTGTCAAA; sugars from the 5' end e5 d10 e5, all phosphorothioate, methylation of C not given here) [compound 320171]
[1]
  % Inhib. rat p38α: 2%
[2]
  % Inhib. mouse p38α: 35%

## 320172 (antisense ACTCTCGCGAGAACAGCTCC; sugars from the 5' end e5 d10 e5, all phosphorothioate, methylation of C not given here) [compound 320172]
[1]
  % Inhib. rat p38α: 0%
[2]
  % Inhib. mouse p38α: 39%

## 320173 (antisense TCCCACAGGCAGCGGCCGGG; sugars from the 5' end e5 d10 e5, all phosphorothioate, methylation of C not given here) [compound 320173]
[1]
  % Inhib. rat p38α: 250%
[2]
  % Inhib. mouse p38α: 160%

## 320174 (antisense CCCGCTTGGGCTCCAGTGGC; sugars from the 5' end e5 d10 e5, all phosphorothioate, methylation of C not given here) [compound 320174]
[1]
  % Inhib. rat p38α: 29%
[2]
  % Inhib. mouse p38α: 62%

## AACGCTCTCATCATATGGCT (chemistry not fully specified) [ISIS 17903]
[3]; [4]
  % mRNA EXPRESSION: 11%
  % mRNA Inhibition: 89%

## AACGTGCTCGTCAAGTGCCA (chemistry not fully specified) [ISIS 17898]
[3]; [4]
  % mRNA EXPRESSION: 49%
  % mRNA Inhibition: 51%

## ACACATGTTTGTGCATGCAT (antisense; chemistry not fully specified) [ISIS 17906]
[3]; [4]
  % mRNA EXPRESSION: 22%
  % mRNA Inhibition: 78%

## ACTGTTTGGTTGTAATGCAT (antisense; chemistry not fully specified) [ISIS 17900]
[3]; [4]
  % mRNA EXPRESSION: 40%
  % mRNA Inhibition: 60%

## ACTTGACGATGTTGTTCAGG (antisense; chemistry not fully specified) [ISIS 17897]
[3]; [4]
  % mRNA EXPRESSION: 25%
  % mRNA Inhibition: 75%

## AGTGCACGCTCATCCACACG (chemistry not fully specified) [ISIS 17909]
[3]; [4]
  % mRNA EXPRESSION: 13%
  % mRNA Inhibition: 87%

## ATGATGCGCTTCAGCTGGTC (chemistry not fully specified) [ISIS 17901]
[3]; [4]
  % mRNA EXPRESSION: 15%
  % mRNA Inhibition: 85%

## CAGCACCTCACTGCTCAATC (chemistry not fully specified) [ISIS 17904]
[3]; [4]
  % mRNA EXPRESSION: 9%
  % mRNA Inhibition: 91%
[3]; dose 10 nM
  % mRNA EXPRESSION: 31%
  % mRNA Inhibition: 69%
[3]; dose 25 nM
  % mRNA EXPRESSION: 21%
  % mRNA Inhibition: 79%
[3]; dose 50 nM
  % mRNA EXPRESSION: 17%
  % mRNA Inhibition: 83%
[3]; dose 100 nM
  % mRNA EXPRESSION: 19%
  % mRNA Inhibition: 81%

## CCGAACAGACGGAGCCGTAT (chemistry not fully specified) [ISIS 17894]
[3]; [4]
  % mRNA EXPRESSION: 13%
  % mRNA Inhibition: 87%

## CCTACACATGGCAAGCACAT (chemistry not fully specified) [ISIS 17907]
[3]; [4]
  % mRNA EXPRESSION: 8%
  % mRNA Inhibition: 92%
[3]; dose 10 nM
  % mRNA EXPRESSION: 37%
  % mRNA Inhibition: 63%
[3]; dose 25 nM
  % mRNA EXPRESSION: 22%
  % mRNA Inhibition: 78%
[3]; dose 50 nM
  % mRNA EXPRESSION: 18%
  % mRNA Inhibition: 72%
[3]; dose 100 nM
  % mRNA EXPRESSION: 18%
  % mRNA Inhibition: 72%

## CGACATGTCCGGAGCAGAAT (chemistry not fully specified) [ISIS 17891]
[3]; [4]
  % mRNA EXPRESSION: 22%
  % mRNA Inhibition: 78%

## CTTGCCAGATATGGCTGCTG (chemistry not fully specified) [ISIS 17910]
[3]; [4]
  % mRNA EXPRESSION: 26%
  % mRNA Inhibition: 74%

## GCCAGTGCCTCAGGTGCACT [ISIS 17902]
[3]; [4]
  % mRNA EXPRESSION: 49%
  % mRNA Inhibition: 51%

## GCGTGAAGACGTCCAGAAGC (chemistry not fully specified) [ISIS 17896]
[3]; [4]
  % mRNA EXPRESSION: 24%
  % mRNA Inhibition: 76%

## GTGCTTCAGGTGCTTGAGCA (chemistry not fully specified) [ISIS 17895]
[3]; [4]
  % mRNA EXPRESSION: 25%
  % mRNA Inhibition: 75%

## TCCAGGCTGAGCAGCTCTAA (chemistry not fully specified) [ISIS 17908]
[3]; [4]
  % mRNA EXPRESSION: 17%
  % mRNA Inhibition: 83%

## TCTGTGACCATAGGAGTGTG (antisense; chemistry not fully specified) [ISIS 17905]
[3]; [4]
  % mRNA EXPRESSION: 14%
  % mRNA Inhibition: 86%

## TTCAGCTCCTGCCGGTAGAA (chemistry not fully specified) [ISIS 17892]
[3]; [4]
  % mRNA EXPRESSION: 10%
  % mRNA Inhibition: 90%
